# Results from patent publication US11013812B2, “Ice-based lipid nanoparticle formulation for delivery of mRNA” (Translate Bio, Inc., priority 2016, dated 2021).
# Test: Percent mRNA encapsulation of lipid nanoparticle formulations (fluorescence-based detection of mRNA)
# Format: physicochemical
# Details: LNP of cationic lipid:DOPE:DMG-PEG 2K (molar ratio 60:35:5); 5 mg mRNA LNP preparations
# Text: In some embodiments, one particular application of the novel lipid composition comprising a sterol-based cationic lipid, a helper lipid, and a PEG or PEG-modified lipid is pulmonary delivery of mRNA, such as CFTR mRNA.
# In this process, the lipids dissolved in ethanol and the mRNA dissolved in citrate buffer were mixed using a pump system. […] The resultant formulation mixture was in citrate buffer containing 20% ethanol. The formulation was subjected to a buffer exchange and the resultant formulation was adjusted to the desired mRNA concentration and stored frozen until further use. Final concentration: 0.5 mg/mL CFTR mRNA (encapsulated). % mRNA Encapsulation: 90%. Size: 60 nm. PDI: 0.14.
row,SMILES,% mRNA encapsulation [%]
1,CCCCCCCCCCC(O)CN(CCN1CCN(CCN(CC(O)CCCCCCCCCC)CC(O)CCCCCCCCCC)CC1)CCN(CC(O)CCCCCCCCCC)CC(O)CCCCCCCCCC (centres unmarked) [C12-200],39
2,"CC(C)CCCC(C)C1CCC2C3CC=C4CC(OC(=O)CCc5cnc[nH]5)CCC4(C)C3CCC12C [ICE, (3S, 10R, 13R, 17R)-10, 13-dimethyl-17-((R)-6-methylheptan-2-yl)-2,3,4,7,8,9, 10, 11, 12, 13, 14, 15, 16, 17-tetradecahydro-1H-cyclopenta[a]phenanthren-3-yl 3-(1H-imidazol-4-yl)propanoate]",90

# Continued, values first:
row,% mRNA encapsulation [%],SMILES
1,49,"CCCCCCCC/C=C\CCCCCCCC(=O)OCC(CN(C)C)OC(=O)CCCCCCC/C=C\CCCCCCCC (centres unmarked) [DODAP, 1,2-dioleoyl-3-dimethylammonium-propane]"
2,51,"CCCCCCCC/C=C\CCCCCCCCOCC(CN(C)C)OCCCCCCCC/C=C\CCCCCCCC (centres unmarked) [DODMA, 1,2-Dioleyloxy-3-dimethylaminopropane]"
3,59,"CCCCCCCCCCC(O)CN(CCCC(C)C1OC(=O)C(C(C)CCCN(CC(O)CCCCCCCCCC)CC(O)CCCCCCCCCC)OC1=O)CC(O)CCCCCCCCC (centres unmarked) [Target 24, 3-(5-(bis(2-hydroxydodecyl)amino)pentan-2-yl)-6-(5-((2-hydroxydodecyl)(2-hydroxyundecyl)amino)pentan-2-yl)-1,4-dioxane-2,5-dione]"
